Legend:
SH-SY5Y cells = experiment: Cytotoxicity of CAR T cells in presence of Compound A gradient; type: cell-based, human; details: 0.04-30 μM Compound A, E:T 0.2:1, 20 hours, FIG. 10
Protocol: To evaluate if Compound A influence to the cytotoxicity of CAR T against tumor cell, Compound A (CAS Number:191732-72-6, Sigma-Aldrich, St. Louis) stock was serially diluted to final concentration of 30, 10, 3.33, 1.11, 0.37, 0.12 and 0.04 μM using complete growth medium. In the presence of Compound A gradient, CAR T cells were co-incubated with tumor cells at an effector (CAR T) to target cell ratio of 0.2:1 for 20 hours. CAR T cells and tumor cells co-cultured without addition of Compound A served as a control. Cytotoxicity of CAR T cells on tumor cells was estimated using the Cytotoxicity Detection Kit (LDH) (Roche, #11644793001) as described in Example 6.

SH-SY5Y tumor cells = experiment: In vitro repetitive challenge assay with Compound A; type: cell-based, human
Protocol: To evaluate the effect of 3-(4-amino-1-oxo-1,3 dihydro-2H-isoindol-2-yl)piperidine-2,6-dione (Compound A) on CAR T cell recursive killing potential, T cell expansion and survival, an in vitro repetitive challenge assay was employed. Exemplary CAS70950VH6-BBz CAR T cells on day 11 post-transduction were co-cultured with SH-SY5Y tumor cells at an effector (CAR T) to target cell ratio of 1:2. The co-culture media was supplemented with 10 μM Compound A throughout this study. CAR T cells were re-challenged with tumor cells every 3 days (round 1, round 2, round 3 and round 4). CAR T cells and tumor cells co-cultured without addition of Compound A was used as a control. The percentages of CD3^+ T cells, percentages of CD3^+CAR^+ T cells were analyzed by flow cytometer. The amount of IFNγ in the co-culture supernatant was quantified using HTRF human IFNγ AlphaLISA kit (Perkin Elmer, #62HIFNGPEH) as described in Example 6.

[1] = tested on: neuroblastoma SH-SY5Y xenograft; details: mouse, in vivo
[2] = tested on: neuroblastoma SH-SY5Y xenograft; experiment: In vivo combination of Compound A and CAR T cells in SH-SY5Y xenograft; details: FIG. 12A

promotion of CAR+ T cells expansion by Compound A co-administration [1]: about 6 fold
SMILES: Nc1cccc2c1CN(C1CCC(=O)NC1=O)C2=O (stereo not shown) [Compound A, 3-(4-amino-1-oxo-1,3 dihydro-2H-isoindol-2-yl)piperidine-2,6-dione]
effect of Compound A on cytotoxicity of CAS70950VH6-BBz CAR T cells against SH-SY5Y (SH-SY5Y cells): not impaired
IFNγ released from CAS70950VH6-BBz CAR T cells compared to non-treated CAR T cells (SH-SY5Y tumor cells; 10 μM Compound A): higher amount of IFNγ
CD3+CAR+ T cells survival and expansion after repetitive tumor challenges (SH-SY5Y tumor cells; CAS70950VH6-BBz CAR T cells with 10 μM Compound A, FIG. 11A-11B): promoted CD3^+CAR^+ T cells survival and expansion
effector activity of CAS70950VH6-BBz CAR T cells after repetitive tumor challenges (SH-SY5Y tumor cells; supplemented with 10 μM Compound A, FIG. 11A-11B): maintained their effector activity
tumor regression, Compound A in combination with CAS70950VH6-BBz CAR-T cells ([2]; Compound A 7.5 mg/kg i.p. 21 days plus 1.5×10^6 CAR+ T cells): more pronounced tumor regression
tumor growth, single treatment ([2]; twelve days after treatment, CAR T 1.5×10^6 i.v. or Compound A 7.5 mg/kg i.p. for 21 days): did not achieve any tumor suppression
